Reference: publication PMC10821019, “F16 Hybrids Derived from Steviol or Isosteviol Are Accumulated in the Mitochondria of Tumor Cells and Overcome Drug Resistance” (Molecules, 2024)

Key:
[1] = test system: CCD18Co (non-malignant human fibroblasts); assay: SRB cytotoxicity assay, CCD18Co; assay type: cell-based; conditions: 72 h treatment, mean n = 3, SD 5-10%
Excerpt: (§1) All compounds were screened for their cytotoxic activity and tumor cell selectivity using our standard model, previously described, comprising a selection of human tumor cell lines representing different solid tumor entities and non-malignant human fibroblasts (CCD18Co) including the cell line pair A2780/A2780cis, a well-known model of acquired drug resistance.
(§2) Reagents were bought from commercial suppliers and used without further purification. The solvents were dried according to the usual procedures. TLC was performed on silica gel (Macherey-Nagel, detection with UV absorption; Macherey-Nagel, Düren, Germany). […] Numbering in the NMR spectra: 1–20 (diterpene core), 21–24 for O-(CH2)n-N fragment followed by the pyridinium ring, the ethenyl moiety and the indole moiety. […] IR spectra were recorded on a Perkin-Elmer Spectrum Two (UATR Two Unit, Perkin-Elmer GmbH, Rodgau, Germany). […] Both media were supplemented with 10% fetal bovine serum (Biowest, Nuaillé, France) and 1% penicillin-streptomycin (Sigma-Aldrich).
(§3) Cytotoxic activities of compounds were analyzed using the SRB cytotoxicity assay. Cells were seeded in 96-well plates and after 24 h were treated with serial dilutions of compounds for 72 h. All subsequent steps were performed according to the previously described SRB assay protocol. Dose–response curves and calculation of IC50 values, including standard deviations, were carried out using GraphPad Prism8.

[2] = test system: HT29 (colorectal carcinoma); assay: SRB cytotoxicity assay, HT29; assay type: cell-based, human; conditions: 72 h treatment, mean n = 3, SD 5-10%
Excerpt: as §1, §2, §3

MCF7 (breast carcinoma) = assay: SRB cytotoxicity assay, MCF7; assay type: cell-based, human; conditions: 72 h treatment, mean n = 3, SD 5-10%
Excerpt: as §1, §2, §3

[3] = test system: A2780 (ovarian carcinoma); assay: SRB cytotoxicity assay, A2780; assay type: cell-based, human; conditions: for selectivity index 1 (SI 1): CCD18Co/A2780; for IC50: SRB assay, 72 h treatment, mean n = 3, SD 5-10%
Excerpt: as §1, §2, §3

A549 (lung carcinoma) = assay: SRB cytotoxicity assay, A549; assay type: cell-based, human; conditions: for selectivity index 2 (SI 2): CCD18Co/A549; for IC50: SRB assay, 72 h treatment, mean n = 3, SD 5-10%
Excerpt: as §1, §2, §3

[4] = test system: A2780cis (resistant derivative of A2780); assay: SRB cytotoxicity assay, A2780cis; assay type: cell-based, human; conditions: for IC50: SRB assay, 72 h treatment, mean n = 3, SD 5-10%; for resistance index (RI): quotient IC50 values A2780cis/A2780
Excerpt: as §1, §2, §3

Row | Molecule | IC50 [1] [µM] | IC50 [2] [µM] | IC50 (MCF7 (breast carcinoma)) [µM] | selectivity index 1 (SI 1) [3] | IC50 [3] [µM] | selectivity index 2 (SI 2) (A549 (lung carcinoma)) | IC50 (A549 (lung carcinoma)) [µM] | IC50 [4] [µM] | resistance index (RI) [4] | tumor cell selectivity, in words ([3]; tumor cells vs non-malignant fibroblasts CCD18Co) | drug resistance in the A2780/A2780cis model, in words ([4]; A2780cis vs A2780)
1 | CC12CCC3C(CCC4C(C)(C(=O)OCCC[n+]5cccc(C=Cc6c[nH]c7ccccc67)c5)CCCC34C)(CC1=O)C2.[Br-] (stereo not drawn) [Compound 19, 3-{3[(E)-2-(1H-Indol-3-yl)-ethenyl]-pyridinium-1-yl}-propyl (4α, 8β, 13β) 13-Methyl-16-oxo-17-norkauran-18-oate Bromide] | 15.5 | 5.05 | 2.5 | 15.60 | 0.99 | 1.38 | 11.2 | 1.93 | 1.94 |  | 
2 | C=C1C[C@@]23CC[C@H]4[C@@](C)(CCC[C@@]4(C)C(=O)OCCC[n+]4ccccc4/C=C/c4c[nH]c5ccccc45)[C@@H]2CC[C@]1(O)C3.[Br-] [Compound 20, 3-{2-[(E)-2-(1H-Indol-3-yl)-ethenyl]-pyridinium-1-yl}-propyl (4α)-13-Hydroxykaur-16-en-18-oate bromide] | 19.4 | 6.11 | 1.85 | 10.73 | 1.81 | 1.55 | 12.6 | 2.7 | 1.49 |  | 
3 | CC12CCC3C(CCC4C(C)(C(=O)OCCCC[n+]5ccccc5C=Cc5c[nH]c6ccccc56)CCCC34C)(CC1=O)C2.[Br-] (stereo not drawn) [Compound 29, 4-{2-[(E)-2-(1H-Indol-3-yl)ethenyl]pyridinium-1-yl}-butyl (4α, 8β, 13β) 13-Methyl-16-oxo-17-norkauran-18-oate Bromide] | 18.6 | 3.81 | 2.05 | 17.61 | 1.06 | 1.88 | 9.86 | 3.22 | 3.05 |  | 
4 | C=C1C[C@@]23CC[C@H]4[C@@](C)(CCC[C@@]4(C)C(=O)OCCBr)[C@@H]2CC[C@]1(O)C3 [Compound 6, 2-Bromoethyl (4α)-13-Hydroxykaur-16-en-18-oate] | 42.2 | 30.6 | 29.4 | 1.70 | 24.8 | 0.51 | 83.4 | 28.1 | 1.13 |  | 
5 | C=C1C[C@@]23CC[C@H]4[C@@](C)(CCC[C@@]4(C)C(=O)OCCC[n+]4ccc(/C=C/c5c[nH]c6ccccc56)cc4)[C@@H]2CC[C@]1(O)C3.[Br-] [Compound 16, 3-{4-[(E)-2-(1H-Indol-3-yl)ethenyl]-pyridinium-1-yl}-propyl (4α)-13-Hydroxykaur-16-en-18-oate Bromide] | 8.33 | 0.98 | 0.72 | 26.27 | 0.32 | 2.77 | 3 | 0.45 | 1.41 |  | 
6 | C=C1C[C@@]23CC[C@H]4[C@@](C)(CCC[C@@]4(C)C(=O)OCCCC[n+]4ccc(/C=C/c5c[nH]c6ccccc56)cc4)[C@@H]2CC[C@]1(O)C3.[Br-] [Compound 24] | 13.1 | 0.88 | 0.58 | 53.96 | 0.24 | 4.74 | 2.76 | 0.28 | 1.13 | retained selectivity | able to reduce or even overcome drug resistance
7 | CC12CCC3C(CCC4C(C)(C(=O)OCC[n+]5ccc(C=Cc6c[nH]c7ccccc67)cc5)CCCC34C)(CC1=O)C2.[Br-] (stereo not drawn) [Compound 9, 2-{4-[(E)-2-(1H-Indol-3-yl)-ethenyl]pyridinium-1-yl}-ethyl (4α, 8β, 13β) 13-Methyl-16-oxo-17-norkauran-18-oate Bromide] | 13 | 1.56 | 1.08 | 13.96 | 0.93 | 1.42 | 9.09 | 1.54 | 1.66 |  | 
8 | C=C1C[C@@]23CC[C@H]4[C@@](C)(CCC[C@@]4(C)C(=O)OCC[n+]4ccc(/C=C/c5c[nH]c6ccccc56)cc4)[C@@H]2CC[C@]1(O)C3.[Br-] [Compound 8, 2-{4-[(E)-2-(1H-Indol-3-yl)ethenyl]-pyridinium-1-yl}-ethyl (4α)-13-Hydroxykaur-16-en-18-oate Bromide] | 11.8 | 1.81 | 1.81 | 5.87 | 2.01 | 1.34 | 8.82 | 1.86 | 0.92 |  | 
9 | C=C1C[C@@]23CC[C@H]4[C@@](C)(CCC[C@@]4(C)C(=O)OCCC[n+]4cccc(/C=C/c5c[nH]c6ccccc56)c4)[C@@H]2CC[C@]1(O)C3.[Br-] [Compound 18] | 26.9 | 6.66 | 9.47 | 11.82 | 2.28 | 2.84 | 9.47 | 2.71 | 1.19 |  | 
10 | CC12CCC3C(CCC4C(C)(C(=O)OCCCC[n+]5cccc(C=Cc6c[nH]c7ccccc67)c5)CCCC34C)(CC1=O)C2.[Br-] (stereo not drawn) [Compound 27, 4-{3-[(E)-2-(1H-Indol-3-yl)ethenyl]-pyridinium-1-yl}butyl (4α, 8β, 13β) 13-Methyl-16-oxo-17-norkauran-18-oate Bromide] | 10.8 | 2.2 | 1.57 | 14.18 | 0.76 | 1.72 | 6.28 | 1.27 | 1.67 |  | 
11 | CC12CCC3C(CCC4C(C)(C(=O)OCCCBr)CCCC34C)(CC1=O)C2 (stereo not drawn) [Compound 15, 3-Bromopropyl (4α, 8β, 13β) 13-Methyl-16-oxo-17-norkauran-18-oate] | 41.5 | 15.1 | 12.8 | 4.61 | 9 | 1.67 | 24.8 | 16.6 | 1.85 |  | 
12 | 4-Bromobutyl (4α) -13-Hydroxykaur-16-en-18-oate Bromide [Compound 22] |  |  |  | 3.58 |  | 1.68 |  |  | 1.14 |  | 
13 | C=C1C[C@@]23CC[C@H]4[C@@](C)(CCC[C@@]4(C)C(=O)OCC[n+]4ccccc4/C=C/c4c[nH]c5ccccc45)[C@@H]2CC[C@]1(O)C3.[Br-] [Compound 12, 2-{2-[(E)-2-(1H-Indol-3-yl)ethenyl]-pyridinium-1-yl}-ethyl (4α)-13-Hydroxykaur-16-en-18-oate Bromide] | 75.9 | 28.5 | 20.2 | 2.95 | 25.7 | 1.40 | 54.3 | 29.4 | 1.14 |  | 
14 | C=C1C[C@@]23CC[C@H]4[C@@](C)(CCC[C@@]4(C)C(=O)OCCCC[n+]4ccccc4/C=C/c4c[nH]c5ccccc45)[C@@H]2CC[C@]1(O)C3.[Br-] [Compound 28] | 10.9 | 1.78 | 1.18 | 21.75 | 0.5 | 1.46 | 7.51 | 1.68 | 3.33 |  | 
15 | C=C1C[C@@]23CC[C@H]4[C@@](C)(CCC[C@@]4(C)C(=O)OCCCBr)[C@@H]2CC[C@]1(O)C3 [Compound 14, 3-Bromopropyl (4α) -13-hydroxykaur-16-en-18-oate] | 41.7 | 29.1 | 28.1 | 1.51 | 27.7 | 1.44 | 29 | 28.4 | 1.03 |  | 
16 | CC12CCC3C(CCC4C(C)(C(=O)OCCCCBr)CCCC34C)(CC1=O)C2 (stereo not drawn) [Compound 23, 4-Bromobutyl (4α, 8β, 13β) 13-Methyl-16-oxo-17-norkauran-18-oate] | 31.3 | 24.6 | 18.4 | 2.40 | 13 | 0.91 | 34.3 | 29.1 | 2.23 |  | 
17 | C=C1C[C@@]23CC[C@H]4[C@@](C)(CCC[C@@]4(C)C(=O)OCC[n+]4cccc(/C=C/c5c[nH]c6ccccc56)c4)[C@@H]2CC[C@]1(O)C3 [Compound 10, 2-{3-[(E)-2-(1H-Indol-3-yl)ethenyl]-pyridinium-1-yl}-ethyl (4α)-13-Hydroxykaur-16-en-18-oate Bromide] | 22.7 | 7.65 | 3.83 |  | 2.8 |  |  | 4.2 |  |  | 
